From patent US11168345B2, “Methods of identifying a polypeptide target for degradation by a modulator of CRBN” (THE BROAD INSTITUTE, INC., priority 2015, dated 2021)

Legend:
ZFP91 [1] = conditions: for degradation of ZFP91 in protein reporter vector (normalized EGFP:mCherry ratio): HEK293T cells, lentiviral transduction, 1 μM, cereblon and zinc finger-dependent; for degradation of zinc-finger-containing region of ZFP91 fused to GFP: flow cytometry
Source text: (§1) Bars corresponding to treatment groups A-D are consistent amongst all genetic background groups. Bar height is the average of three replicates, error bars represent 95% confidence intervals. […] Light gray (asterisk) amino acids designate positions which are components of the C2H2 zinc finger motif and are found across the C2H2 family of zinc fingers. Medium gray (black bar) amino acids are polymorphic sites in C2H2 zinc fingers.

RNF166 [2] = conditions: for degradation of RNF166 in protein reporter vector (normalized EGFP:mCherry ratio): HEK293T cells, lentiviral transduction, 1 μM, cereblon and zinc finger-dependent; for degradation of zinc-finger-containing region of RNF166 fused to GFP: flow cytometry
Source text: as §1

ZNF692 [3] = conditions: for degradation of ZNF692 in protein reporter vector (normalized EGFP:mCherry ratio): HEK293T cells, lentiviral transduction, 1 μM, cereblon and zinc finger-dependent; for degradation of zinc-finger-containing region of ZNF692 fused to GFP: flow cytometry
Source text: as §1

ZNF692 [4] = biological target: T1, ZNF692 (Homo sapiens, UniProt Q96SW2+Q9BU19); conditions: MM1S (multiple myeloma) and KG1 (Acute Myeloid Leukemia) cell lines; datasets of Kronke et al. 2014, 2015; cited from earlier work
T1 construct: endogenous in cells; host or cells: MM1S, KG1

[5] = biological target: T2, Aiolos C2H2 zinc finger 2 (AA146-168) (Homo sapiens, UniProt Q96SW2+Q9UKT9); assay: Aiolos zinc finger 2 (amino acids 146-168) GFP fusion degradation, flow cytometry; format: cell-based
T2 construct: attaching zinc finger 2 (amino acids 146-168) to GFP via a flexible linker; expressed in transfected cells; host or cells: HEK293T

RNF166 [6] = biological target: T3, RNF166 (Homo sapiens, UniProt Q96A37+Q96SW2); conditions: MM1S (multiple myeloma) and KG1 (Acute Myeloid Leukemia) cell lines; datasets of Kronke et al. 2014, 2015; cited from earlier work
T3 construct: endogenous in cells; host or cells: MM1S, KG1

ZFP91 [7] = biological target: T4, ZFP91 (Homo sapiens, UniProt Q96JP5+Q96SW2); conditions: MM1S (multiple myeloma) and KG1 (Acute Myeloid Leukemia) cell lines; datasets of Kronke et al. 2014, 2015; cited from earlier work
T4 construct: endogenous in cells; host or cells: MM1S, KG1
T4 sequence (Q96JP5 2-570 limits assumed): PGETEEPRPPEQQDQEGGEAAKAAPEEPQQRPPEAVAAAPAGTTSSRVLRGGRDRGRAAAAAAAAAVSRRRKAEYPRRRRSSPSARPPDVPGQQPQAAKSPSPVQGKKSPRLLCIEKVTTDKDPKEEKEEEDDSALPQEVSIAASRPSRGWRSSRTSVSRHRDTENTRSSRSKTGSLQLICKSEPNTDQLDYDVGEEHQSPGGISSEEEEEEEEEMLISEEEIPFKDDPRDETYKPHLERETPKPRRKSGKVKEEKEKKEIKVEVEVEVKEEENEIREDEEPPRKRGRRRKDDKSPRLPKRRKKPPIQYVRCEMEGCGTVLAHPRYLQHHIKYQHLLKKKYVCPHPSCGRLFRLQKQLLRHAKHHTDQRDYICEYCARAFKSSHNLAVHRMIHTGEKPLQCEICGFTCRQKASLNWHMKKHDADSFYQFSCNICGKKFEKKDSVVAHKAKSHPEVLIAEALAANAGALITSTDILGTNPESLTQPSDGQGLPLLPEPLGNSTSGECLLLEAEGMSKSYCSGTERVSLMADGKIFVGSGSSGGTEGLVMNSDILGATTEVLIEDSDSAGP
T4 sequence (Q96SW2 whole entry): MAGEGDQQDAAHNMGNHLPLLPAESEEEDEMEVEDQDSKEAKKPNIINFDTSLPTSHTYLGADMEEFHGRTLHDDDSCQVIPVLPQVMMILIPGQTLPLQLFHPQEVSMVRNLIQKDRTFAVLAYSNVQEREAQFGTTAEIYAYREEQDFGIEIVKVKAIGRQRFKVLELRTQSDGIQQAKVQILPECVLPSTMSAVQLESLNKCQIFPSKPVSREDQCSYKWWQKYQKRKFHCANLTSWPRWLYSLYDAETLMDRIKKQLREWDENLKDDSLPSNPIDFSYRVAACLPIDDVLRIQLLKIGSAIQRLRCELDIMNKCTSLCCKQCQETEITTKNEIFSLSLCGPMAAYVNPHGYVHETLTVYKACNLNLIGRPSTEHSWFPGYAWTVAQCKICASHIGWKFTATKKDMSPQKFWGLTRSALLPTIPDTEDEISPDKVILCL
T4 sequence (Q16531 whole entry partner): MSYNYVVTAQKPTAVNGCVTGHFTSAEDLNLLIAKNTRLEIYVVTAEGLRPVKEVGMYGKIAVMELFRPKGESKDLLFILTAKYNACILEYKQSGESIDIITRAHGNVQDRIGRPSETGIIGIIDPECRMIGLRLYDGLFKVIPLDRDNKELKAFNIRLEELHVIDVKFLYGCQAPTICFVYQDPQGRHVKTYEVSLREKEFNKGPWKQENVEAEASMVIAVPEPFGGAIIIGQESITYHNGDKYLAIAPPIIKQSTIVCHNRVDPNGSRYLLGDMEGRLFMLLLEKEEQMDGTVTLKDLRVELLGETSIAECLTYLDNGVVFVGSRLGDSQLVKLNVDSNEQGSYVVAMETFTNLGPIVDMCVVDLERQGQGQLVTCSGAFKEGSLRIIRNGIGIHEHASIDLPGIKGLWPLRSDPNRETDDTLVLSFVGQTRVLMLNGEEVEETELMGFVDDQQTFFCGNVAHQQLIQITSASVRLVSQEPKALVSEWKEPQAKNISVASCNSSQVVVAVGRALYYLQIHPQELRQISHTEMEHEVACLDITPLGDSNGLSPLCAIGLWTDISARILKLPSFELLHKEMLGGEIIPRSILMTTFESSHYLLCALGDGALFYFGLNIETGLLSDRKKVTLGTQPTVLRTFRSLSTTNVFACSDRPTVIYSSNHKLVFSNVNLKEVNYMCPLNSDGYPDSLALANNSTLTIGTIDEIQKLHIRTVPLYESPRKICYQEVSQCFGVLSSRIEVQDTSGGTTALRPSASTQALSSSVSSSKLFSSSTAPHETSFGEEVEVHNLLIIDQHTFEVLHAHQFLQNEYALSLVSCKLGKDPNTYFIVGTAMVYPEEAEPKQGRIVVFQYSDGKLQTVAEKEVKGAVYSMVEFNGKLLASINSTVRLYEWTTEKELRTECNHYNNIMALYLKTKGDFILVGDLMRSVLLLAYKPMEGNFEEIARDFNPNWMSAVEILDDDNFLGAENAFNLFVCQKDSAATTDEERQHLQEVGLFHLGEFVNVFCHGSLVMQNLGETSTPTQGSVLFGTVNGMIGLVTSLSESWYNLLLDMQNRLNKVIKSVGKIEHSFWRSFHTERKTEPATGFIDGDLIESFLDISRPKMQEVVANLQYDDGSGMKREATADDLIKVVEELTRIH

T2 sequence (Q9UKT9 146-168 limits assumed): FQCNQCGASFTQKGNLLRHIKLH
T2 sequence (Q96SW2 whole entry, the tested form may be a part): as the sequence (Q96SW2 whole entry) above
T2 sequence (Q16531 whole entry partner, the tested form may be a part): as the sequence (Q16531 whole entry partner) above
T1 sequence (Q9BU19 whole entry): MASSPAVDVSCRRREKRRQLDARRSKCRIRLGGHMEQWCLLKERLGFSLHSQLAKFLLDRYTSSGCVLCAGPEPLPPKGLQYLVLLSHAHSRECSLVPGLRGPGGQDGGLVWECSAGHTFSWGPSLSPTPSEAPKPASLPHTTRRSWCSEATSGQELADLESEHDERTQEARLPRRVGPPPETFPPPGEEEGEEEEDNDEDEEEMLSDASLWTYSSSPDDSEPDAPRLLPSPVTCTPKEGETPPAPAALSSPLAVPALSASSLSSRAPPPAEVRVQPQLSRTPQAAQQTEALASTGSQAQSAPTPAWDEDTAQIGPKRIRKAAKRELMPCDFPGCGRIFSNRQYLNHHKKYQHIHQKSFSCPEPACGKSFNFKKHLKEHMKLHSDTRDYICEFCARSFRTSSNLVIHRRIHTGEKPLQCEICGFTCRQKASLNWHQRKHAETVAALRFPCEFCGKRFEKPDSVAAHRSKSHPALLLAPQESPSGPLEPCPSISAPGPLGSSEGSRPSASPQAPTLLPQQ
T1 sequence (Q96SW2 whole entry): as the sequence (Q96SW2 whole entry) above
T1 sequence (Q16531 whole entry partner): as the sequence (Q16531 whole entry partner) above
T3 sequence (Q96A37 whole entry): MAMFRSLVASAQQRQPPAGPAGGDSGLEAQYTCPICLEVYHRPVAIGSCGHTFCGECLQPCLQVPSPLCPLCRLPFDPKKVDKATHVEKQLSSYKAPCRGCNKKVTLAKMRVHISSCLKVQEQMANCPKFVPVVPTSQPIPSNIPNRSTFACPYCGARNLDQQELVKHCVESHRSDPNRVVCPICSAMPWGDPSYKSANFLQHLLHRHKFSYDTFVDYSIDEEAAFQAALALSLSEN
T3 sequence (Q96SW2 whole entry): as the sequence (Q96SW2 whole entry) above
T3 sequence (Q16531 whole entry partner): as the sequence (Q16531 whole entry partner) above

Row | Compound | degradation of ZFP91 in protein reporter vector (normalized EGFP:mCherry ratio) (ZFP91 [1]) | degradation of zinc-finger-containing region of ZFP91 fused to GFP (ZFP91 [1]) | degradation of RNF166 in protein reporter vector (normalized EGFP:mCherry ratio) (RNF166 [2]) | degradation of zinc-finger-containing region of RNF166 fused to GFP (RNF166 [2]) | degradation of ZNF692 in protein reporter vector (normalized EGFP:mCherry ratio) (ZNF692 [3]) | degradation of zinc-finger-containing region of ZNF692 fused to GFP (ZNF692 [3]) | ZNF692 protein abundance in the presence of drug (ZNF692 [4]) | second C2H2 zinc finger in Aiolos (amino acids 146-169) inducing targeting by the drug [5] | RNF166 protein abundance in the presence of drug (RNF166 [6]) | ZFP91 protein abundance in the presence of drug (ZFP91 [7])
1 | O=C1CCC(N2C(=O)c3ccccc3C2=O)C(=O)N1 (centres unmarked) [thalidomide] | degraded | degraded with varying efficiencies | degraded | degraded with varying efficiencies | degraded | degraded with varying efficiencies | significant decrease in abundance | both necessary and sufficient to induce targeting | significant decrease in abundance | significant decrease in abundance
2 | Nc1cccc2c1C(=O)N(C1CCC(=O)NC1=O)C2=O (centres unmarked) [pomalidomide] | degraded | degraded with varying efficiencies | degraded | degraded with varying efficiencies | degraded | degraded with varying efficiencies | – | both necessary and sufficient to induce targeting | – | –
